# Measurements published in US20250340557A1, “PYRIMIDINE DERIVATIVE” (ASKA PHARMACEUTICAL CO., LTD., priority 2022, published 2025).
# Target: T1, human mPGES-1 (Homo sapiens, UniProt O14684)
# T1 construct: made in house; host or cells: COS-1 cells (transient transfection; microsomal fraction used as enzyme)
# T1 sequence (O14684 1-152): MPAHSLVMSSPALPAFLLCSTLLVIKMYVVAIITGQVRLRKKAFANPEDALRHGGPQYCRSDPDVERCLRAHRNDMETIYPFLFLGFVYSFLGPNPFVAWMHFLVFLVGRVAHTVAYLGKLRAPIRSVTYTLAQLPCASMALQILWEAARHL
# Assay: Test for mPGES-1 inhibitory activity (microsomal enzyme, PGE2 EIA)
# Type: biochemical
# Details: microsomes of COS-1 cells transfected with human mPGES-1 cDNA; PGH2 1 μM; 4° C., 4 minutes; PGE2 by EIA; read-out: h mPGES1 IC50
# Summary of the method: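 Enzyme source was microsomes from COS-1 cells transiently expressing human mPGES-1, in sodium phosphate pH 7.2 with 2.5 mM GSH, 1 mM EDTA and 2% DMSO final. After a 15 min preincubation with compound at 4 °C, 1 μM PGH2 (final) reacted for 4 min at 4 °C.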
row,SMILES,IC50 [nM]
1,"CCc1nc(-c2c(C(F)(F)F)ccc(CNC(=O)[C@H]3C[C@H](OCc4ccc(Cl)cc4)C3)c2F)[nH]c(=O)c1F [Example 231, trans-3-[(4-chlorobenzyl)oxy]-N-[3-(4-ethyl-5-fluoro-6-oxo-1,6-dihydropyrimidin-2-yl)-2-fluoro-4-(trifluoromethyl)benzyl]cyclobutane-1-carboxamide]",< 1
2,"CCc1nc(-c2c(C(F)(F)F)ccc(CNC(=O)[C@H]3C[C@H](OCc4ccccc4C(F)(F)F)C3)c2F)[nH]c(=O)c1F [Example 232, trans-N-[3-(4-ethyl-5-fluoro-6-oxo-1,6-dihydropyrimidin-2-yl)-2-fluoro-4-(trifluoromethyl)benzyl]-3-{[2-(trifluoromethyl)benzyl]oxy}cyclobutane-1-carboxamide]",< 1
3,"CCc1nc(-c2c(C(F)(F)F)ccc(CNC(=O)[C@H]3C[C@H](OCc4cccc(C(F)(F)F)c4)C3)c2F)[nH]c(=O)c1F [Example 233, trans-N-[3-(4-ethyl-5-fluoro-6-oxo-1,6-dihydropyrimidin-2-yl)-2-fluoro-4-(trifluoromethyl)benzyl]-3-{[3-(trifluoromethyl)benzyl]oxy}cyclobutane-1-carboxamide]",< 1
4,"CCc1nc(-c2c(C(F)(F)F)ccc(CNC(=O)[C@H]3C[C@H](OCc4ccc(C(F)(F)F)cc4)C3)c2F)[nH]c(=O)c1F [Example 234, trans-N-[3-(4-ethyl-5-fluoro-6-oxo-1,6-dihydropyrimidin-2-yl)-2-fluoro-4-(trifluoromethyl)benzyl]-3-{[4-(trifluoromethyl)benzyl]oxy}cyclobutane-1-carboxamide]",< 1
5,"CCc1nc(-c2c(C(F)(F)F)ccc(CNC(=O)[C@H]3C[C@H](OCc4ccc(F)cc4F)C3)c2F)[nH]c(=O)c1F [Example 235, trans-3-[(2,4-difluorobenzyl)oxy]-N-[3-(4-ethyl-5-fluoro-6-oxo-1,6-dihydropyrimidin-2-yl)-2-fluoro-4-(trifluoromethyl)benzyl]cyclobutane-1-carboxamide]",1.1
6,"CCc1nc(-c2c(C(F)(F)F)ccc(CNC(=O)[C@H]3C[C@H](OCc4ccc(F)c(F)c4)C3)c2F)[nH]c(=O)c1F [Example 237, trans-3-[(3,4-difluorobenzyl)oxy]-N-[3-(4-ethyl-5-fluoro-6-oxo-1,6-dihydropyrimidin-2-yl)-2-fluoro-4-(trifluoromethyl)benzyl]cyclobutane-1-carboxamide]",< 1
7,"CCc1nc(-c2c(C(F)(F)F)ccc(CNC(=O)[C@H]3C[C@H](OCc4cc(F)cc(F)c4)C3)c2F)[nH]c(=O)c1F [Example 238, trans-3-[(3,5-difluorobenzyl)oxy]-N-[3-(4-ethyl-5-fluoro-6-oxo-1,6-dihydropyrimidin-2-yl)-2-fluoro-4-(trifluoromethyl)benzyl]cyclobutane-1-carboxamide]",< 1
8,"CCc1nc(-c2c(C(F)(F)F)ccc(CNC(=O)[C@H]3C[C@H](OCc4cccc(F)c4)C3)c2F)[nH]c(=O)c1F [Example 239, trans-N-[3-(4-ethyl-5-fluoro-6-oxo-1,6-dihydropyrimidin-2-yl)-2-fluoro-4-(trifluoromethyl)benzyl]-3-[(3-fluorobenzyl)oxy]cyclobutane-1-carboxamide]",< 1
9,"CCc1nc(-c2c(C(F)(F)F)ccc(CNC(=O)[C@H]3C[C@H](OCc4cccc(F)c4F)C3)c2F)[nH]c(=O)c1F [Example 240, trans-3-[(2,3-difluorobenzyl)oxy]-N-[3-(4-ethyl-5-fluoro-6-oxo-1,6-dihydropyrimidin-2-yl)-2-fluoro-4-(trifluoromethyl)benzyl]cyclobutane-1-carboxamide]",3.2
10,"CCc1nc(-c2c(C(F)(F)F)ccc(CNC(=O)[C@H]3C[C@H](OCc4ccc(F)c(Cl)c4)C3)c2F)[nH]c(=O)c1F [Example 244, trans-3-[(3-chloro-4-fluorobenzyl)oxy]-N-[3-(4-ethyl-5-fluoro-6-oxo-1,6-dihydropyrimidin-2-yl)-2-fluoro-4-(trifluoromethyl)benzyl]cyclobutane-1-carboxamide]",< 1
11,"CCc1nc(-c2c(C(F)(F)F)ccc(CNC(=O)[C@H]3C[C@H](OCc4cc(F)cc(Cl)c4)C3)c2F)[nH]c(=O)c1F [Example 245, trans-3-[(3-chloro-5-fluorobenzyl)oxy]-N-[3-(4-ethyl-5-fluoro-6-oxo-1,6-dihydropyrimidin-2-yl)-2-fluoro-4-(trifluoromethyl)benzyl]cyclobutane-1-carboxamide]",< 1
12,"O=c1[nH]c(-c2c(C(F)(F)F)ccc(CNC(=O)[C@H]3C[C@H](OCc4cccc(Cl)c4)C3)c2F)nc2c1CCC2 [Example 247, trans-3-[(3-chlorobenzyl)oxy]-N-[2-fluoro-3-(4-oxo-4,5,6,7-tetrahydro-3H-cyclopenta[d]pyrimidin-2-yl)-4-(trifluoromethyl)benzyl]cyclobutane-1-carboxamide]",< 1
13,"O=C(NCc1ccc(C(F)(F)F)c(-c2nc(C(F)(F)F)cc(=O)[nH]2)c1F)C1CCC(Oc2ccc(C(F)(F)F)cn2)CC1 (stereo not drawn) [Example 248, N-{2-fluoro-3-[6-oxo-4-(trifluoromethyl)-1,6-dihydropyrimidin-2-yl]-4-(trifluoromethyl)benzyl}-4-{[5-(trifluoromethyl)pyridin-2-yl]oxy}cyclohexane-1-carboxamide]",< 1
14,"O=c1cc(C(F)(F)F)nc(-c2c(C(F)(F)F)ccc(CNC(=O)[C@H]3C[C@H](Oc4ccccc4Cl)C3)c2F)[nH]1 [Example 251, trans-3-(2-chlorophenoxy)-N-{2-fluoro-3-[6-oxo-4-(trifluoromethyl)-1,6-dihydropyrimidin-2-yl]-4-(trifluoromethyl)benzyl}cyclobutane-1-carboxamide]",< 1
15,"O=c1cc(C(F)(F)F)nc(-c2c(C(F)(F)F)ccc(CNC(=O)[C@H]3C[C@H](Oc4cccc(Cl)c4)C3)c2F)[nH]1 [Example 253, trans-3-(3-chlorophenoxy)-N-{2-fluoro-3-[6-oxo-4-(trifluoromethyl)-1,6-dihydropyrimidin-2-yl]-4-(trifluoromethyl)benzyl}cyclobutane-1-carboxamide]",1
16,"O=c1cc(C(F)(F)F)nc(-c2c(C(F)(F)F)ccc(CNC(=O)[C@H]3C[C@H](Oc4ccc(Cl)cc4)C3)c2F)[nH]1 [Example 255, trans-3-(4-chlorophenoxy)-N-{2-fluoro-3-[6-oxo-4-(trifluoromethyl)-1,6-dihydropyrimidin-2-yl]-4-(trifluoromethyl)benzyl}cyclobutane-1-carboxamide]",2.8

# Results, then the compound that gave them:
row,IC50 [nM],SMILES
1,< 1,"CCc1nc(-c2c(C(F)(F)F)ccc(CNC(=O)[C@H]3C[C@H](OCc4ccc(Cl)cc4F)C3)c2F)[nH]c(=O)c1F [Example 236, trans-3-[(4-chloro-2-fluorobenzyl)oxy]-N-[3-(4-ethyl-5-fluoro-6-oxo-1,6-dihydropyrimidin-2-yl)-2-fluoro-4-(trifluoromethyl)benzyl]cyclobutane-1-carboxamide]"
2,< 1,"CCc1nc(-c2c(C(F)(F)F)ccc(CNC(=O)[C@H]3C[C@H](OCc4ccc(F)cc4Cl)C3)c2F)[nH]c(=O)c1F [Example 241, trans-3-[(2-chloro-4-fluorobenzyl)oxy]-N-[3-(4-ethyl-5-fluoro-6-oxo-1,6-dihydropyrimidin-2-yl)-2-fluoro-4-(trifluoromethyl)benzyl]cyclobutane-1-carboxamide]"
3,< 1,"CCc1nc(-c2c(C(F)(F)F)ccc(CNC(=O)[C@H]3C[C@H](OCc4cccc(Cl)c4F)C3)c2F)[nH]c(=O)c1F [Example 242, trans-3-[(3-chloro-2-fluorobenzyl)oxy]-N-[3-(4-ethyl-5-fluoro-6-oxo-1,6-dihydropyrimidin-2-yl)-2-fluoro-4-(trifluoromethyl)benzyl]cyclobutane-1-carboxamide]"
4,< 1,"CCc1nc(-c2c(C(F)(F)F)ccc(CNC(=O)[C@H]3C[C@H](OCc4cc(Cl)ccc4F)C3)c2F)[nH]c(=O)c1F [Example 243, trans-3-[(5-chloro-2-fluorobenzyl)oxy]-N-[3-(4-ethyl-5-fluoro-6-oxo-1,6-dihydropyrimidin-2-yl)-2-fluoro-4-(trifluoromethyl)benzyl]cyclobutane-1-carboxamide]"
5,< 1,"Cc1nc(-c2c(C(F)(F)F)ccc(CNC(=O)[C@H]3C[C@H](OCc4cccc(Cl)c4)C3)c2F)[nH]c(=O)c1C [Example 246, trans-3-[(3-chlorobenzyl)oxy]-N-[3-(4,5-dimethyl-6-oxo-1,6-dihydropyrimidin-2-yl)-2-fluoro-4-(trifluoromethyl)benzyl]cyclobutane-1-carboxamide]"
6,< 1,"O=c1cc(C(F)(F)F)nc(-c2c(C(F)(F)F)ccc(CNC(=O)[C@H]3C[C@H](Oc4ccc(C(F)(F)F)cn4)C3)c2F)[nH]1 [Example 249, trans-N-{2-fluoro-3-[6-oxo-4-(trifluoromethyl)-1,6-dihydropyrimidin-2-yl]-4-(trifluoromethyl)benzyl}-3-{[5-(trifluoromethyl)pyridin-2-yl]oxy}cyclobutane-1-carboxamide]"
7,< 1,"O=c1cc(C(F)(F)F)nc(-c2c(C(F)(F)F)ccc(CNC(=O)[C@H]3C[C@@H](Oc4ccc(C(F)(F)F)cn4)C3)c2F)[nH]1 [Example 250, cis-N-{2-fluoro-3-[6-oxo-4-(trifluoromethyl)-1,6-dihydropyrimidin-2-yl]-4-(trifluoromethyl)benzyl}-3-{[5-(trifluoromethyl)pyridin-2-yl]oxy}cyclobutane-1-carboxamide]"
8,4.6,"O=c1cc(C(F)(F)F)nc(-c2c(C(F)(F)F)ccc(CNC(=O)[C@H]3C[C@@H](Oc4cccc(Cl)c4)C3)c2F)[nH]1 [Example 254, cis-3-(3-chlorophenoxy)-N-{2-fluoro-3-[6-oxo-4-(trifluoromethyl)-1,6-dihydropyrimidin-2-yl]-4-(trifluoromethyl)benzyl}cyclobutane-1-carboxamide]"
